EC50 and Ki data for 19 compounds are collected here from patent US20240398781A1, “SPIROCYCLIC CYCLIC MODULATORS OF CHOLESTEROL BIOSYNTHESIS AND THEIR USE FOR PROMOTING REMYELINATION” (GENENTECH, INC., priority 2021, published 2024).

One test deals with EpiSC-derived OPCs. Description: In vitro phenotypic screening of OPCs (MBP staining, high-content imaging). Format: cell-based, mouse. Conditions: Mus musculus, 72 h, percentage of MBP+ oligodendrocytes, 3 days, 0.5 nM to 1000 nM; read-out: OPC EC50. Here is the method: To assess effects of treatments on OPCs, all treatments were assayed in two or more independent platings of epiblast stem cell-derived OPCs (EpiSC). EpiSC-derived OPCs were obtained using in vitro differentiation protocols and culture conditions described previously (Najm et al, 2011, Nature Methods). OPCs were expanded and frozen down in aliquots. OPCs were thawed into growth conditions for at least one passage before use in further assays.
EpiSC-derived OPCs were grown and expanded in poly-L-ornithine (PO) and laminin-coated flasks in N2B27 media (DMEM/F12 (Gibco), N2-MAX (R&D Systems), B-27 (ThermoFisher), and GlutaMax (Gibco)) supplemented with FGF2 ([…], R&D systems, 233-FB-025) and PDGF-AA ([…], R&D systems, 233-AA-050) before harvesting for experiments. The cells were seeded onto poly-L-ornithine or poly-D-lysine coated CellCarrier Ultra plates (PerkinElmer) coated with laminin (Sigma, L2020) at a density of 150,000/cm^2 in N2B27 media without growth factors. For dose-response testing, a 1000× compound stock in dimethyl sulphoxide (DMSO) was added to assay plates, resulting in 8-point dose curves with final concentrations between 1000 nM and 0.5 nM. Positive controls and DMSO vehicle controls were included in each assay plate. Cells were incubated under standard conditions (37° C., 5% CO2) for 3 days and fixed with 4% paraformaldehyde (PFA) in phosphate buffered saline (PBS) for 20 min. Fixed plates were washed with PBS, permeabilized with 0.1% Triton X-100, and blocked with 10% donkey serum (v/v) in PBS for 40 min. Then, cells were labelled with MBP antibodies (Abcam, ab7349; 1:200) for 2 h at room temperature, washed with PBS, and stained with Alexa Fluor conjugated secondary antibodies (1:500) for 45 min. Nuclei were visualized by DAPI staining (Sigma; 1 μg/ml), followed by further PBS washes.
Cells and cell culture plates were imaged on the Operetta High Content Imaging and Analysis system (PerkinElmer). Analysis (PerkinElmer Harmony and Columbus software) began by identifying intact nuclei stained by DAPI. The peri-nuclear region of each cell was then cross-referenced with the mature myelin protein (MBP) stain to identify oligodendrocyte nuclei, and from this the percentage of oligodendrocytes was calculated. EC50 values were calculated using The Levenberg-Marquardt algorithm to fit a Hill equation to dose-response data (0.5 nM to 1000 nM).

The subject of test [1] is EBP (zymostenol accumulation in EpiSC-derived OPCs). The test can be described thus: GC/MS-based sterol profiling, zymostenol accumulation in OPCs. In kind it is cell-based, mouse. Conditions: Mus musculus, 24 h, EpiSC-derived OPCs, 24 hr treatment, 8 doses from 0.15 nM to 333 nM; read-out: Zymostenol GCMS EC50. In outline: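 EpiSC-derived OPCs (100,000/well) were treated 24 h in N2B27 without growth factors. Sterols were TMS-derivatized and analysed by GC/MS full-scan EI, quantified against cholesterol-d7. Zymostenol was normalized to the level after 24 h with 100 nM positive control reference.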

For test [2], the target named is human emopamil binding protein and human 7-dehydrocholesterol reductase co-expressing cells (hEBP-DHCR7 membrane) (Homo sapiens (Human), UniProt Q15125). The test can be described thus: Radioligand filter binding assay on hEBP-DHCR7 membrane. Conditions: [3H]-(S)-6-(2-Methyl-3-(6-(trifluoromethyl)pyridin-3-yl)propyl)-2-thia-6-azaspiro[3.4]octane 2,2-dioxide radioligand, HEK293 membrane co-expressing hEBP and hDHCR7. In outline: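 HEK293 cells transiently co-expressing human EBP and DHCR7 supplied whole-cell membranes (10 μg/well), incubated 3 h at 22 °C with [3H]-labelled spiro-octane dioxide ligand (added at 25 nM) and compound (0.06-5000 nM final, 8 doses, n=2). Bound ligand was collected on PEI-treated GF/B filters and counted by scintillation. IC50 was Hill-fitted from % inhibition and reported as Ki.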
Sequence of human emopamil binding protein and human 7-dehydrocholesterol reductase co-expressing cells (hEBP-DHCR7 membrane) (Q15125 whole entry): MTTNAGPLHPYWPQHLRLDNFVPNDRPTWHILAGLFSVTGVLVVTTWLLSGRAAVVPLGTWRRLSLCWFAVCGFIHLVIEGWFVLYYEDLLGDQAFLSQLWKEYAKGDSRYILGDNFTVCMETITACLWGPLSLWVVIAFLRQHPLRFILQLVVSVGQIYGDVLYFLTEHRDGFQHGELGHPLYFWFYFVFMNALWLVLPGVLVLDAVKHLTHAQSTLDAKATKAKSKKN

What is called EC50 is the midpoint of the concentration-response curve. The term Ki denotes the equilibrium dissociation constant of an inhibitor or competing ligand from its target. Take `CC(C)n1nc(-c2ccc(C(F)(F)F)cc2)nc1[C@H]1CCC(N2CCC3(CC2)CS(=O)(=O)C3)C1` (stereo in doubt) [Compound 58B, 7-((1S,3S)-3-(1-isopropyl-3-(4-(trifluoromethyl)phenyl)-1H-1,2,4-triazol-5-yl)cyclopentyl)-2-thia-7-azaspiro[3.5]nonane 2,2-dioxide]: the values for the EC50 (in the test with EpiSC-derived OPCs; in test [1]) were 3.4 nM and 2.3 nM, respectively. This compound also showed a Ki in test [2] of 21 nM.
For `O=S1(=O)CC2(CCN([C@H]3CC[C@@H](c4ccc(C(F)(F)F)nc4)CC3)CC2)C1` [81B*, 7-((1s,4s)-4-(6-(Trifluoromethyl)pyridin-3-yl)cyclohexyl)-2-thia-7-azaspiro[3.5]nonane 2,2-dioxide] the same measures were 270 nM, 42 nM and 470 nM.
The matching figures for `O=S1(=O)CCC2(CCN([C@H]3CC[C@H](c4ccc(C(F)(F)F)cn4)CC3)C2)CC1` [84B*, 2-((1s,4s)-4-(5-(Trifluoromethyl)pyridin-2-yl)cyclohexyl)-8-thia-2-azaspiro[4.5]decane 8,8-dioxide]: 130 nM, 27 nM and 69 nM.
The matching figures for `O=S1(=O)CC2(CCN([C@H]3CC[C@@H](c4ccc(C(F)(F)F)cc4)C3)C2)C1` [Compound 1A, 6-((1S,3R)-3-(4-(trifluoromethyl)phenyl)cyclopentyl)-2-thia-6-azaspiro[3.4]octane 2,2-dioxide]: 17 nM, 4.9 nM and 14.8 nM.
Turning to `O=S1(=O)CC2(CCN([C@@H]3CC[C@H](c4ccc(C(F)(F)F)cc4)C3)C2)C1` [Compound 1C, 6-((1R,3S)-3-(4-(trifluoromethyl)phenyl)cyclopentyl)-2-thia-6-azaspiro[3.4]octane 2,2-dioxide], the values for the EC50 (in the test on EpiSC-derived OPCs; in test [1]) were 1.8 nM and 1.4 nM, respectively. Besides, the Ki in test [2] stood at 11 nM.
As to `O=S1(=O)CC2(CCN([C@H]3CC[C@H](c4ccc(C(F)(F)F)cc4)C3)C2)C1` [Compound 1D, 6-((1S,3S)-3-(4-(trifluoromethyl)phenyl)cyclopentyl)-2-thia-6-azaspiro[3.4]octane 2,2-dioxide], the EC50 was 18 nM with EpiSC-derived OPCs and 4.9 nM in test [1]. In test [2], this compound yielded a Ki of 15 nM.
In the case of `O=S1(=O)CC2(CCN(C3CCN(c4ncc(C(F)(F)F)cc4C4CC4)CC3)C2)C1` [Compound 44, 6-(1-(3-Cyclopropyl-5-(trifluoromethyl)pyridin-2-yl)piperidin-4-yl)-2-thia-6-azaspiro[3.4]octane 2,2-dioxide], the figures for the 50% effective concentration (EC50) (with EpiSC-derived OPCs; in test [1]) were 14 nM and 4 nM, respectively. Further, the Ki in test [2] was 9 nM.
The matching figures for `O=S1(=O)CC2(CCN(C3CCN(c4ncc(F)cc4C(F)(F)F)CC3)C2)C1` [Compound 45, 6-(1-(5-Fluoro-3-(trifluoromethyl)pyridin-2-yl)piperidin-4-yl)-2-thia-6-azaspiro[3.4]octane 2,2-dioxide]: 49 nM, 13 nM and 17 nM.
As for `O=S1(=O)CC2(CCN([C@H]3CC[C@H](c4ncc(C(F)(F)F)cc4Cl)CC3)C2)C1` [Compound 48A, 6-((1r,4r)-4-(3-chloro-5-(trifluoromethyl)pyridin-2-yl)cyclohexyl)-2-thia-6-azaspiro[3.4]octane 2,2-dioxide], the concentration giving a half-maximal response (EC50) in the test on EpiSC-derived OPCs came out at 4 nM; in test [1], 3.7 nM. Also, in test [2], the Ki was found to be 31 nM.
The matching figures for `Cc1nc(C(F)(F)F)ccc1[C@H]1CC[C@H](N2CCC3(C2)CS(=O)(=O)C3)CC1` [Compound 51A, 6-((1r,4r)-4-(2-Methyl-6-(trifluoromethyl)pyridin-3-yl)cyclohexyl)-2-thia-6-azaspiro[3.4]octane 2,2-dioxide]: 18 nM, 8.3 nM and 26 nM.
Take `O=S1(=O)CC2(CCN(C3CCN(c4ncc(C(F)(F)F)cc4F)CC3)CC2)C1` [Compound 52, 7-(1-(3-Fluoro-5-(trifluoromethyl)pyridin-2-yl)piperidin-4-yl)-2-thia-7-azaspiro[3.5]nonane 2,2-dioxide]: the EC50 with EpiSC-derived OPCs worked out at 7.7 nM; in test [1], 4.8 nM. In test [2], the affinity, expressed as Ki, was 18 nM.
The matching figures for `O=S1(=O)CC2(CCN([C@H]3CC[C@H](c4ncc(C(F)(F)F)cc4F)CC3)C2)C1` [Compound 59, 6-((1r,4r)-4-(3-Fluoro-5-(trifluoromethyl)pyridin-2-yl)cyclohexyl)-2-thia-6-azaspiro[3.4]octane 2,2-dioxide]: 82 nM, 13 nM and 72 nM.
For `O=S1(=O)CC2(CCN([C@H]3CC[C@H](c4ccnc(C(F)(F)F)c4)CC3)C2)C1` [Compound 60A, 6-((1r,4r)-4-(2-(trifluoromethyl)pyridin-4-yl)cyclohexyl)-2-thia-6-azaspiro[3.4]octane 2,2-dioxide] the same measures were 21 nM, 10 nM and 133 nM.
The matching figures for `O=S1(=O)CC2(CCN([C@H]3CC[C@H](c4cccc(C(F)(F)F)n4)CC3)C2)C1` [Compound 62B, 6-((1r,4r)-4-(6-(trifluoromethyl)pyridin-2-yl)cyclohexyl)-2-thia-6-azaspiro[3.4]octane 2,2-dioxide]: 13 nM, 6.4 nM and 37 nM.
Consider `CCc1nc(C(F)(F)F)ccc1[C@H]1CC[C@H](N2CCC3(C2)CS(=O)(=O)C3)CC1` [Compound 64A, 6-((1r,4r)-4-(2-ethyl-6-(trifluoromethyl)pyridin-3-yl)cyclohexyl)-2-thia-6-azaspiro[3.4]octane 2,2-dioxide], for which the EC50 with EpiSC-derived OPCs came out at 11 nM; in test [1], 3.7 nM. Further, affinity in test [2] was put at a Ki of 15 nM.
The matching figures for `CC(C)c1nc(C(F)(F)F)ccc1[C@H]1CC[C@H](N2CCC3(C2)CS(=O)(=O)C3)CC1` [Compound 65A, 6-((1r,4r)-4-(2-isopropyl-6-(trifluoromethyl)pyridin-3-yl)cyclohexyl)-2-thia-6-azaspiro[3.4]octane 2,2-dioxide]: 8.9 nM, 4.1 nM and 14 nM.
For `O=S1(=O)CC2(CCN([C@H]3CC[C@H](c4ccc(F)c(F)c4)CC3)C2)C1` [Compound 70A, 6-((1r,4r)-4-(3,4-difluorophenyl)cyclohexyl)-2-thia-6-azaspiro[3.4]octane 2,2-dioxide] the same measures were 18 nM, 4 nM and 6.5 nM.
The matching figures for `CC(C)(C)n1nc(C(F)(F)F)cc1[C@H]1CC[C@H](N2CCC3(C2)CS(=O)(=O)C3)CC1` [Compound 73, 6-((1r,4r)-4-(1-(tert-Butyl)-3-(trifluoromethyl)-1H-pyrazol-5-yl)cyclohexyl)-2-thia-6-azaspiro[3.4]octane 2,2-dioxide]: 110 nM, 33 nM and 21 nM.
With `CC(C)(C)n1nc(C2CC2)nc1[C@@H]1CC[C@H](N2CCC3(C2)CS(=O)(=O)C3)C1` [Compound 74A, 6-((1S,3R)-3-(1-(tert-butyl)-3-cyclopropyl-1H-1,2,4-triazol-5-yl)cyclopentyl)-2-thia-6-azaspiro[3.4]octane 2,2-dioxide], the EC50 with EpiSC-derived OPCs was 230 nM; in test [1], 31 nM. The same compound showed a Ki in test [2] of 154 nM.
